Structures can show the parent of a compound that is named as a salt. Where two headings read alike, the source gives them in different places.
Legend:
[1] = test system: hiPSC-derived 3D neurospheres; test: cells; type: cell-based, human; conditions: for EC10 / EC25 / EC50: Homo sapiens, 72 h; for Effect on cell viability (in words): D21, D28, D42 neurospheres
Procedure: After thawing, NSCs (generated as detailed above) were cultured on POL/L (0.002%/1 µg/cm^2) coated plates (50,000 cells/cm^2). When reached 100% confluence NSCs were propagated with Accutase treatment and single-cell suspension was plated onto a low-adherent 96-well plate with 10,000 cells/well in NMM medium. […] Samples were collected at Day 0 (D0), Day 2 (D2), and weekly intervals from the end of the 1st week (D7) until the end of the 6th week (D14, D21, D28, D35, and D42).
Eleven well-known compounds were tested in 7 different concentrations to generate concentration-response curves. The tested compounds with the used concentrations are detailed in Table S3. […] In each assay plate, 4 technical replicates were applied from each sample and 3 biological replicate assays were run (n = 3). The 3D cell cultures were exposed to the toxicants for 72 h (exposure schemes are detailed in Figure 5A or Figure 6A or Figure 7A). Vehicle control was used as a regular medium supplemented with 0.1% DMSO.
ATP viability assay was performed with CellTiter-Glo® 3D Cell Viability Assay, according to the manufacturer’s protocol (Promega). Neurospheres were lysed with 100 μL CellTiter-Glo® 3D Reagent for 60 min at RT. Luminescence signal was recorded with a Thermo VarioScan Flash (Thermo Fisher Scientific) plate reader.
All results were analyzed using Prism 5 (GraphPad Software, La Jolla, CA, USA) and handled in Microsoft Office 2010 (Microsoft, Redmond, WA, USA) software. For normalization of the concentration response, the average values of positive control were used as 0% and the average of vehicle control served as 100%. Four parameter curve fitting methods were used to determine EC10 and EC50 values, where the data on the graphs represent the average of three biological replicates. The “n” value corresponds to the number of biological replicates for each tested concentration. Analysis of data is presented as the mean ± SEM. Significance of data was determined with paired T test for RT-qPCR (* p < 0.01) and with One-way ANOVA for concentration response (* p < 0.05; ** p < 0.01).

LUHMES cells [2] = conditions: LUHMES cells exposed; literature value, reference not given; cited from earlier work
LUHMES cells [3] = conditions: cited from earlier work
[4] = test system: hiPSC-derived 3D neurospheres; test: TUNEL apoptosis assay on cryosectioned 3D neurospheres; type: cell-based, human; conditions: 0.5 µM for 72 h; average, in each stage (D21, D28, D42)
XBP1(S) = test: XBP1 assay of endoplasmic reticulum stress; type: cell-based, human; conditions: listed as ROT
Procedure: Upon accumulation of unfolded proteins in the endoplasmic reticulum (ER), a 26-nucleotide fragment from the X-box binding protein 1 mRNA (XBP1(U)) is removed with a special splicing mechanism. This shorter mRNA (XBP1(S)) is a frequently used marker of ER-stress. To study the expression of XBP1(S), previously described primers and our own primers were used (Table S2). As a positive control, cells were treated with 5 µM and 10 µM Tunicamycin to induce ER-stress. RT-PCR reactions were performed and analyzed as above, using Phusion Hot Start II High-Fidelity DNA Polymerase and 20 ng of the cDNA samples.

humans = conditions: ref PubChem database (https://pubchem.ncbi.nlm.nih.gov/), cited from earlier work
[5] = test system: in vitro multicellular cytotoxicity; conditions: multicellular cytotoxicity "comptox" data; ref EPA's Chemical dashboard (https://comptox.epa.gov/dashboard); cited from earlier work
rat = test system: rat; parameters: method as in PubChem database (https://pubchem.ncbi.nlm.nih.gov/); conditions: ref PubChem database (https://pubchem.ncbi.nlm.nih.gov/), cited from earlier work
[6] = D21 3D neurospheres, 72 h exposure
[7] = D21 stage, 72 h exposure, investigated concentration range
[8] = D21 3D neurospheres, 72 h exposure, read-out: EC10 (cell viability) (converted)
[9] = D21 3D neurospheres, 72 h exposure, read-out: EC25 (cell viability) (converted)
[10] = D21 3D neurospheres, 72 h exposure, read-out: EC50 (cell viability) (converted)
[11] = D28 3D neurospheres, 72 h exposure, read-out: EC10 (cell viability) (converted)
[12] = D28 3D neurospheres, 72 h exposure, read-out: EC25 (cell viability) (converted)
[13] = D28 3D neurospheres, 72 h exposure, read-out: EC50 (cell viability) (converted)
[14] = D42 3D neurospheres, 72 h exposure, read-out: EC10 (cell viability) (converted)
[15] = D42 3D neurospheres, 72 h exposure, read-out: EC25 (cell viability) (converted)
[16] = D42 3D neurospheres, 72 h exposure, read-out: EC50 (cell viability) (converted)
[17] = investigated concentration range
[18] = read-out: EC10 (cell viability), D21 3D neurospheres, 72 h exposure
[19] = read-out: EC10 (cell viability), D42 3D neurospheres, 72 h exposure
[20] = read-out: EC25 (cell viability), D21 3D neurospheres, 72 h exposure
[21] = read-out: EC25 (cell viability), D28 3D neurospheres, 72 h exposure
[22] = read-out: EC25 (cell viability), D42 3D neurospheres, 72 h exposure
[23] = read-out: EC10 (cell viability)
[24] = read-out: EC25 (cell viability)
[25] = read-out: EC50 (cell viability)
[26] = D28 3D neurospheres, 72 h exposure
[27] = D42 3D neurospheres, 72 h exposure

## CCCC(CCC)C(=O)O [Valproic acid, 2-Propylpentanoic acid]
[1]; [6]
  EC50 (cell viability): > 2.6 log µM
[1]; [7]
  Effect on viability of 3D neurospheres (in words): minimal effect on the viability
[1]; [8]
  EC10: > 398 µM
[1]; [9]
  EC25: > 398 µM
[1]; [10]
  EC50: > 398 µM
[1]; [11]
  EC10: > 398 µM
[1]; [12]
  EC25: > 398 µM
[1]; [13]
  EC50: > 398 µM
[1]; [14]
  EC10: > 398 µM
[1]; [15]
  EC25: > 398 µM
[1]; [16]
  EC50: > 398 µM
[1]; [17]
  Effect on cell viability (in words): no detectable impact
LUHMES cells [2]
  EC50: > 100 µM
LUHMES cells [3]
  Neurite outgrowth of LUHMES cells (in words): significant inhibition of neurite outgrowth

## C=C(C)[C@H]1Cc2c(ccc3c2O[C@@H]2COc4cc(OC)c(OC)cc4[C@@H]2C3=O)O1 [Rotenone]
[1]; [18]
  EC10: 0.0129 µM
[1]; read-out: EC10 (cell viability), D28 3D neurospheres, 72 h exposure
  EC10: 0.00646 µM
[1]; [19]
  EC10: 0.00447 µM
[1]; [20]
  EC25: 0.0562 µM
[1]; [21]
  EC25: 0.0347 µM
[1]; [22]
  EC25: 0.0331 µM
[1]; read-out: EC50 (cell viability), D21 3D neurospheres, 72 h exposure
  EC50: 0.245 µM
[1]; read-out: EC50 (cell viability), D28 3D neurospheres, 72 h exposure
  EC50: 0.182 µM
[1]; read-out: EC50 (cell viability), D42 3D neurospheres, 72 h exposure
  EC50: 0.24 µM
[4]
  Increase in the apoptotic cell number compared to the control: 15%
XBP1(S)
  ER-stress inducing effect (XBP1 assay): no ER-stress inducing effect
LUHMES cells [3]
  Neurite outgrowth of LUHMES cells (in words): prominent neurite growth inhibition
humans
  Probable lethal dose in human: 300 to 500 mg/kg
[5]
  In vitro cytotoxicity limit: 0.22 µM

## CC(C)Cc1ccc(C(C)C(=O)O)cc1 (stereo not drawn) [Ibuprofen, α-Methyl-4-(isobutyl)phenylacetic acid]
[1]; [6]
  EC50 (cell viability): > 2 log µM
[1]; [7]
  Effect on viability of 3D neurospheres (in words): did not decrease the viability
[1]; [8]
  EC10: > 100 µM
[1]; [9]
  EC25: > 100 µM
[1]; [10]
  EC50: > 100 µM
[1]; [11]
  EC10: > 100 µM
[1]; [12]
  EC25: > 100 µM
[1]; [13]
  EC50: > 100 µM
[1]; [14]
  EC10: > 100 µM
[1]; [15]
  EC25: > 100 µM
[1]; [16]
  EC50: > 100 µM
[1]; [17]
  Effect on cell viability (in words): no effect on neuronal cell viability
humans; individuals
  Consumed dose at which overdose symptoms appear: > 99 mg/kg

## Oc1c(Cl)cc(Cl)c(Cl)c1Cc1c(O)c(Cl)cc(Cl)c1Cl [Hexachlorophene, 2,2′-Methylenebis(3,4,6-trichlorophenol)]
[1]; [7]
  Effect on viability of 3D neurospheres (in words): had a strong effect on the viability, but did not kill all the cells
[1]; [8]
  EC10: 0.631 µM
[1]; [9]
  EC25: 3.39 µM
[1]; [10]
  EC50: 18.2 µM
[1]; [11]
  EC10: 0.257 µM
[1]; [12]
  EC25: 1.62 µM
[1]; [13]
  EC50: 10.2 µM
[1]; [14]
  EC10: 0.0661 µM
[1]; [15]
  EC25: 0.457 µM
[1]; [16]
  EC50: 3.16 µM
rat; oral
  LD50: 66 mg/kg
[5]
  In vitro cytotoxicity limit: 1.86 µM

## COc1cccc2c1C(=O)c1c(O)c3c(c(O)c1C2=O)C[C@@](O)(C(=O)CO)C[C@@H]3O[C@H]1C[C@H](N)[C@H](O)[C@H](C)O1 [Doxorubicin, Doxorubicin hydrochloride]
[1]; [7]
  Effect on viability of 3D neurospheres (in words): caused maximum cell death
[1]; [8]
  EC10: 0.263 µM
[1]; [9]
  EC25: 1.1 µM
[1]; [10]
  EC50: 4.68 µM
[1]; [11]
  EC10: 2.14 µM
[1]; [12]
  EC25: 5.25 µM
[1]; [13]
  EC50: 12.9 µM
[1]; [14]
  EC10: 3.09 µM
[1]; [15]
  EC25: 7.94 µM
[1]; [16]
  EC50: 20.9 µM
rat; subcutaneous
  LD50: • - Intercalating chemotherapy drug; • - inhibiting the movement of topoisomerase II, which leads to the blocking of both replication and transcription; and • - LD50: 21.8 mg/kg (rat, subcutaneous).

## CO[C@H]1/C=C/O[C@@]2(C)Oc3c(C)c(O)c4c(O)c(c(/C=N/N5CCN(C)CC5)c(O)c4c3C2=O)NC(=O)/C(C)=C\C=C\[C@H](C)[C@H](O)[C@@H](C)[C@@H](O)[C@@H](C)[C@H](OC(C)=O)[C@@H]1C [Rifampicin, 3-(4-Methylpiperazinyliminomethyl)rifamycin]
[1]
  EC50 (cell viability): > 2 log µM
  Effect on viability of 3D neurospheres (in words): reduced the viability
[1]; [23]
  EC10: > 100 µM
[1]; [24]
  EC25: > 100 µM
[1]; [25]
  EC50: > 100 µM
rat; route not given
  LD50: 1570 mg/kg
humans; oral
  Probable lethal oral dose in humans: 14 to 60 g

## C[n+]1ccc(-c2cc[n+](C)cc2)cc1 [Paraquat, 1,1′-Dimethyl-4,4′-bipyridinium dichloride hydrate]
[1]; [7]
  Effect on viability of 3D neurospheres (in words): caused maximum cell death
[1]; [8]
  EC10: 14.1 µM
[1]; [9]
  EC25: 33.1 µM
[1]; [10]
  EC50: 77.6 µM
[1]; [11]
  EC10: 22.4 µM
[1]; [12]
  EC25: 46.8 µM
[1]; [13]
  EC50: 95.5 µM
[1]; [14]
  EC10: 12.3 µM
[1]; [15]
  EC25: 27.5 µM
[1]; [16]
  EC50: 61.7 µM
humans; oral
  Probable oral lethal dose in humans: • - Herbicide; • - neurotoxic: occupational exposures leading to Parkinson’s disease [74]; • - widely investigated neurotoxic mechanism [75, 76]; and • - probable oral lethal dose in humans is 35 mg/kg.

## CC(=O)Nc1ccc(O)cc1 [Paracetamol, 4′-Hydroxyacetanilide]
[1]
  EC50 (cell viability): > 2 log µM
  Effect on viability of 3D neurospheres (in words): minimal effect on the viability
[1]; [23]
  EC10: > 100 µM
[1]; [24]
  EC25: > 100 µM
[1]; [25]
  EC50: > 100 µM
rat; oral
  LD50: 2400 mg/kg
humans
  Acute overdose at which hepatic toxicity occurred in humans: > 10 g

## COc1cc2c(c(OC)c1OC)-c1ccc(OC)c(=O)cc1[C@@H](NC(C)=O)CC2 [Colchicine, (S)-N-(5,6,7,9-Tetrahydro-1,2,3,10-tetramethoxy-9-oxobenzo[a]heptalen-7-yl)acetamide]
[1]; [7]
  Effect on viability of 3D neurospheres (in words): had a strong effect on the viability, but did not kill all the cells
[1]; [18]
  EC10: 0.000257 µM
[1]; [19]
  EC10: 0.000282 µM
[1]; [20]
  EC25: 0.00912 µM
[1]; [21]
  EC25: 0.0129 µM
[1]; [22]
  EC25: 0.00575 µM
humans; oral
  Probable oral lethal dose in humans: < 5 mg/kg
[5]
  In vitro cytotoxicity limit: 0.02 µM

## [Cl][Hg][Cl] [Mercury(II) chloride]
[1]; [6]
  EC10 (cell viability): 1.1 log µM
  EC25 (cell viability): 1.5 log µM
  EC50 (cell viability): 1.87 log µM
[1]; [7]
  Effect on viability of 3D neurospheres (in words): caused maximum cell death
[1]; [26]
  EC10 (cell viability): 1.4 log µM
  EC25 (cell viability): 1.60 log µM
  EC50 (cell viability): 1.83 log µM
[1]; [27]
  EC10 (cell viability): 1.34 log µM
  EC25 (cell viability): 1.54 log µM
  EC50 (cell viability): 1.74 log µM
humans; oral
  Probable oral lethal dose in humans: 5 to 50 mg/kg
[5]
  In vitro cytotoxicity limit: 1.37 µM

## C=CC(N)=O [Acrylamide, 2-Propenamide]
[1]
  EC10 (cell viability): > 3.5 log µM
  EC25 (cell viability): > 3.5 log µM

— publication PMC7290365, “Human Induced Pluripotent Stem Cell-Derived 3D-Neurospheres Are Suitable for Neurotoxicity Screening” (Cells, 2020)
